Source: ChEMBL document CHEMBL4007467, “Effects of 6-paradol, an unsaturated ketone from gingers, on cytochrome P450-mediated drug metabolism” (Bioorg Med Chem Lett, 2017)

Columns and labels:
Format in all cases: ADME
Cytochrome P450 2C19 = Cytochrome P450 2C19 (Homo sapiens, UniProt P33261); test: Inhibition of CYP2C19 in human liver microsomes assessed as enzyme-mediated metabolite formation using (S)-mephenytoin as substrate incubated for 5 mins followed by NADPH addition measured after 30 mins by LC-MS/MS analysis
CYP2D6 = CYP2D6 (Homo sapiens, UniProt P10635); test: Inhibition of CYP2D6 in human liver microsomes assessed as enzyme-mediated metabolite formation at 0.1 uM using dextromethorphan as substrate preincubated for 20 mins followed by substrate addition measured after 30 mins in presence of NADPH by LC-MS/MS analysis relative to control; design: scale not given: the % may be the effect or the level left; details: probe dextromethorphan, read-out: Activity
CYP2C9 = CYP2C9 (Homo sapiens, UniProt P11712); test: Inhibition of CYP2C9 in human liver microsomes assessed as enzyme-mediated metabolite formation at 3 uM using diclofenac as substrate incubated for 5 mins followed by NADPH addition measured after 30 mins by LC-MS/MS analysis relative to control; design: scale not given: the % may be the effect or the level left; details: probe diclofenac, read-out: Activity
CYP2B6 = molecular target: T1, CYP2B6 (Homo sapiens, UniProt P20813); test: Inhibition of CYP2B6 in human liver microsomes assessed as enzyme-mediated metabolite formation at 0.1 uM using bupropion as substrate incubated for 5 mins followed by NADPH addition measured after 30 mins by LC-MS/MS analysis relative to control; design: scale not given: the % may be the effect or the level left; details: probe bupropion, read-out: Activity
T1 sequence (P20813 whole entry): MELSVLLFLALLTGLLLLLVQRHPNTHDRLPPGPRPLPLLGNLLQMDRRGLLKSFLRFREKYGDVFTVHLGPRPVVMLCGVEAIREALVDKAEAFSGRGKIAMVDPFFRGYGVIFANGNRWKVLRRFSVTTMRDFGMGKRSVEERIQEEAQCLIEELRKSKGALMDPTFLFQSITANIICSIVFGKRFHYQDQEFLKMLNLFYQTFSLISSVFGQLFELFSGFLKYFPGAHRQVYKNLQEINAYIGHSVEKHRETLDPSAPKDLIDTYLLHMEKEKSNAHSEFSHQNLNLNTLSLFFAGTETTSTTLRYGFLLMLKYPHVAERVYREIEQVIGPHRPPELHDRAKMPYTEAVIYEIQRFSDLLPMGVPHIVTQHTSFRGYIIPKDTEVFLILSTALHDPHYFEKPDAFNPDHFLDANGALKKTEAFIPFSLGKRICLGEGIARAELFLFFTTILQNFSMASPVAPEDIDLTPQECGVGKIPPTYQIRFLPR

CYP1A2 [1] = molecular target: T2, CYP1A2 (Homo sapiens, UniProt P05177); test: Inhibition of CYP1A2 in human liver microsomes assessed as enzyme-mediated metabolite formation at 3 uM using phenacetin as substrate preincubated for 20 mins followed by substrate addition measured after 30 mins in presence of NADPH by LC-MS/MS analysis relative to control; design: scale not given: the % may be the effect or the level left; details: probe phenacetin, read-out: Activity
T2 sequence (P05177 whole entry): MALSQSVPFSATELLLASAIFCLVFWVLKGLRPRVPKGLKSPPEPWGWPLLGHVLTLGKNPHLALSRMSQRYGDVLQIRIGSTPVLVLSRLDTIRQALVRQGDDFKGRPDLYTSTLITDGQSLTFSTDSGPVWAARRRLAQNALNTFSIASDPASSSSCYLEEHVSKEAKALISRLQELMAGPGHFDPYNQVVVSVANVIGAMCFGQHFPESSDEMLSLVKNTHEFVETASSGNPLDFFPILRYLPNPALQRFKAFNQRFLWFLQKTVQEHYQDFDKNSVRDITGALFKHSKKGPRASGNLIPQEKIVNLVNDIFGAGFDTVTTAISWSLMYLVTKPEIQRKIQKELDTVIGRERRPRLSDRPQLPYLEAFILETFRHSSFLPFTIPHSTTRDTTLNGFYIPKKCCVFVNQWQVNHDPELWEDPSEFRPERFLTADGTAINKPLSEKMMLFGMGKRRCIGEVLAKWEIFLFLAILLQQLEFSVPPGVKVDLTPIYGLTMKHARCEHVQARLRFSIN

CYP1A2 [2] = molecular target: T2, CYP1A2; test: Inhibition of CYP1A2 in human liver microsomes assessed as enzyme-mediated metabolite formation at 30 uM using phenacetin as substrate preincubated for 20 mins followed by substrate addition measured after 30 mins in presence of NADPH by LC-MS/MS analysis relative to control; design: scale not given: the % may be the effect or the level left; details: probe phenacetin, read-out: Activity
CYP1A2 [3] = molecular target: T2, CYP1A2; test: Inhibition of CYP1A2 in human liver microsomes assessed as enzyme-mediated metabolite formation at 0.1 uM using phenacetin as substrate incubated for 5 mins followed by NADPH addition measured after 30 mins by LC-MS/MS analysis relative to control; design: scale not given: the % may be the effect or the level left; details: probe phenacetin, read-out: Activity
CYP2A6 [4] = molecular target: T3, CYP2A6 (Homo sapiens, UniProt P11509); test: Inhibition of CYP2A6 in human liver microsomes assessed as enzyme-mediated metabolite formation at 10 uM using coumarin as substrate preincubated for 20 mins followed by substrate addition measured after 30 mins in presence of NADPH by LC-MS/MS analysis relative to control; design: scale not given: the % may be the effect or the level left; details: probe coumarin, read-out: Activity
T3 sequence (P11509 whole entry): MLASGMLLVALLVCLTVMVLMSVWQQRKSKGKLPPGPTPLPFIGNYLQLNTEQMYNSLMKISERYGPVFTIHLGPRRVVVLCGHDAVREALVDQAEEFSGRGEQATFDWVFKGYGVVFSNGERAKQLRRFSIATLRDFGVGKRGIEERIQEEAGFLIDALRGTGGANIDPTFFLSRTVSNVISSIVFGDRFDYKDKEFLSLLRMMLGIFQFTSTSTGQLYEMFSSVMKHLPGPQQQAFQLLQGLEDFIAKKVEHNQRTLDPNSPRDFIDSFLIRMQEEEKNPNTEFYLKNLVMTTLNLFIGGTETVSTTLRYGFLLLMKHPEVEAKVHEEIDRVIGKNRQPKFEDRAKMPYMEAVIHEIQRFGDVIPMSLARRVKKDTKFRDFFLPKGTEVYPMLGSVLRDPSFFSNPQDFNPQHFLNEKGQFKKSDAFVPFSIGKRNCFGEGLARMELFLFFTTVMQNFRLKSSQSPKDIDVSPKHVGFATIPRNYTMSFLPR

Cytochrome P450 2B6 = molecular target: T4, Cytochrome P450 2B6 (Homo sapiens, UniProt P20813); test: Inhibition of CYP2B6 in human liver microsomes assessed as enzyme-mediated metabolite formation using bupropion as substrate incubated for 5 mins followed by NADPH addition measured after 30 mins by LC-MS/MS analysis
T4 sequence (P20813 whole entry): T1 sequence (P20813 whole entry)

Cytochrome P450 2A6 = molecular target: T5, Cytochrome P450 2A6 (Homo sapiens, UniProt P11509); test: Inhibition of CYP2A6 in human liver microsomes using coumarin as substrate preincubated for 20 mins followed by substrate addition measured after 30 mins in presence of NADPH by LC-MS/MS analysis
T5 sequence (P11509 whole entry): T3 sequence (P11509 whole entry)

CYP1A2 [5] = molecular target: T2, CYP1A2; test: Inhibition of CYP1A2 in human liver microsomes assessed as enzyme-mediated metabolite formation at 0.3 uM using phenacetin as substrate preincubated for 20 mins followed by substrate addition measured after 30 mins in presence of NADPH by LC-MS/MS analysis relative to control; design: scale not given: the % may be the effect or the level left; details: probe phenacetin, read-out: Activity
CYP2A6 [6] = molecular target: T3, CYP2A6; test: Inhibition of CYP2A6 in human liver microsomes assessed as enzyme-mediated metabolite formation at 3 uM using coumarin as substrate preincubated for 20 mins followed by substrate addition measured after 30 mins in presence of NADPH by LC-MS/MS analysis relative to control; design: scale not given: the % may be the effect or the level left; details: probe coumarin, read-out: Activity

Chain of CYP2D6 (P10635 whole entry): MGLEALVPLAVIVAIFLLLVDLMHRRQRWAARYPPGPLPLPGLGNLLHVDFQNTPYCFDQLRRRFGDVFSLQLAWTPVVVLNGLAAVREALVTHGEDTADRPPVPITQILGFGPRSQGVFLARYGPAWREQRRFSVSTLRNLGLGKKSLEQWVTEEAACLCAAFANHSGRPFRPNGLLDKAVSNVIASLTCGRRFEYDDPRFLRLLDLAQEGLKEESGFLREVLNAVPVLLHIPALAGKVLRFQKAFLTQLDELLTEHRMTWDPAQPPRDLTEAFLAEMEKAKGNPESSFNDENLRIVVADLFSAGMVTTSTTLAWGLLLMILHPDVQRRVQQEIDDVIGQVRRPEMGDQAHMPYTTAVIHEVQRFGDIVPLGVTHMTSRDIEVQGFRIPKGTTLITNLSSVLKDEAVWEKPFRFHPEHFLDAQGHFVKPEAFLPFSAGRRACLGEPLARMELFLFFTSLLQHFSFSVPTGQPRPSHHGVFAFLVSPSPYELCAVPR
Chain of Cytochrome P450 2C19 (P33261 whole entry): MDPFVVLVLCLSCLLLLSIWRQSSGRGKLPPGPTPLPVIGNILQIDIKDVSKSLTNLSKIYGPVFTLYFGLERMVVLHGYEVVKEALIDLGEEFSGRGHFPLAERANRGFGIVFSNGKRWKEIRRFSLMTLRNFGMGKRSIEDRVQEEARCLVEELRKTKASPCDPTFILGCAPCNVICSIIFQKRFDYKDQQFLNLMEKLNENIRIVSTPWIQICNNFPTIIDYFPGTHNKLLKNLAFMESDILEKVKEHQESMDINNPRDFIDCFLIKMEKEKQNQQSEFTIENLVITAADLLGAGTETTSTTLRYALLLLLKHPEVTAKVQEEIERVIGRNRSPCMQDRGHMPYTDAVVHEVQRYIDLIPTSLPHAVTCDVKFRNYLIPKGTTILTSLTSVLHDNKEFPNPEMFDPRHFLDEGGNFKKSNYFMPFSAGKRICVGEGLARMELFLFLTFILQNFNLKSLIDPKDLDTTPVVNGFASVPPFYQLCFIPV
Chain of CYP2C9 (P11712 whole entry): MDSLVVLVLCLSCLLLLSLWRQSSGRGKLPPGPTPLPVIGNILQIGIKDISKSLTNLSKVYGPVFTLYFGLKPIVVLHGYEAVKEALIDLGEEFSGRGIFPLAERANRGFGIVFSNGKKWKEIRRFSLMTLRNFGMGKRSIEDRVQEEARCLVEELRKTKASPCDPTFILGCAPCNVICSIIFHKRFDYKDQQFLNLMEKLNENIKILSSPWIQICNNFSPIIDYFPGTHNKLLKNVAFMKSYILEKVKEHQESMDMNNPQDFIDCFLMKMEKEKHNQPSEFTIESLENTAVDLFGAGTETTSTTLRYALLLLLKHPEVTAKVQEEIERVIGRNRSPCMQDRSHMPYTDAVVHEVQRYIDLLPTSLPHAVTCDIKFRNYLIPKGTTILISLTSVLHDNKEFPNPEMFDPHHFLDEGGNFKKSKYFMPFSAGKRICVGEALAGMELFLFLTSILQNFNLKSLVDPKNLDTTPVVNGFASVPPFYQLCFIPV

`CCCCCCCC(=O)CCc1ccc(O)c(OC)c1` showed an IC50 (Cytochrome P450 2C19) of 17.6 µM, an activity at 0.5 h, 0.1 µM (CYP2D6) of 89.5% and an activity at 0.5 h, 3 µM (CYP2C9) of 68.1%. For the same compound, the activity at 0.5 h, 0.1 µM (CYP2B6) was 93.6%, the activity at 0.5 h, 3 µM (CYP1A2 [1]) was 76.5% and the activity at 0.5 h, 30 µM (CYP1A2 [2]) was 42.8%. It also gave an activity at 0.5 h, 0.1 µM (CYP1A2 [3]) of 100%, an activity at 0.5 h, 10 µM (CYP2A6 [4]) of 96.1% and an IC50 (Cytochrome P450 2B6) of 15.4 µM. For the same compound, the IC50 (Cytochrome P450 2A6) was > 30 µM, the activity at 0.5 h, 0.3 µM (CYP1A2 [5]) was 96.4% and the activity at 0.5 h, 3 µM (CYP2A6 [6]) was 104%.
